Key:
[1] = system: HST578, MBAMD231, HCC1937, HCC1954 cancer cells; test: Cell survival assay, TRDMT1i alone (Example 19); assay type: cell-based; conditions: HCC1954, HRD, high SYCP2
Protocol: FIGS. 14A-14C show TRDMT1i alone reduce cancer cell survival in a dose-dependent manner. (FIG. 14A) Survival rate of HR proficient (HR+) HST578 cancer cells with and without siBRCA1 and/or TRDMT1i YW-1842 at indicated dose. The survival rate of these cells was analyzed (n=3, Mean±SD). (FIG. 14B) Survival rate of MBAMD231 (HR+) and HCC1937 (HRD) cells. The survival rate of these cells was analyzed (n=3, Mean±SD). (FIG. 14C) Cell survival rate in different cancer cell lines via colony-forming assay with the treatment of Imatinib at indicated dose (n=3, mean+/−S.D.). Cell lines are listed in order with the expression level from SYCP2high to SYCP2low.
Cells were seeded in each 6-cm dish and cultured as described above. They were treated with drugs with indicated dose in medium after seeding. After 7-10 days, colonies were fixed and stained with 0.3% crystal violet in methanol, and the number of colonies was counted manually.

[2] = system: MD-MBA-231 xenograft tumors; test: MD-MBA-231 xenograft with PARPi; assay type: in vivo, BALB/c nude mice
Protocol: FIGS. 9A-9G show SYCP2 is required for efficient homologous recombination. (FIG. 9A) Cell survival rate of HeLa and MDAMB231 via colony forming assay with the treatment of […], 4 μm, 6 μM, 8 μM, 16 μM of Olaparib (n=3, mean+/−S.D.). Western blot of SYCP2 overexpression in HeLa and MDA-MB-231 is shown in the left. (FIG. 9B) Cell survival rate of HeLa via colony forming assay with the treatment of 1 μM, 2 μm, 3 μM of Olaparib (n=3, mean+/−S.D.). Western blot of SYCP2 knockdown in Hela is shown in the left. (FIG. 9C) Scheme of Xenograft design using intraperitoneal injection of MBA-MD-231 into successful developed mouse model with virus-associated SYCP2 knockdown and control groups is shown in the left. PARPi was injected every 2 days after day 7. The graph is shown the recorded tumor size of each tested group with PARPi treatment or saline at each treatment day. (FIG. 9D). Numbers of SYCP2 IR induced foci (IRIF) colocalizing with γH2AX in MDAMB231 and HeLa cells. Cells were fixed and counted for foci numbers after 2 Gy IR followed up indicated recovery time (t=0 hr, 12 hr, 24 hr, and 48 hr) (n=30, mean+/−S.D). (FIG. 9E). […] Fold increase of mean intensity at sites of irradiation compared to mean intensity of nucleus expression is quantified (n=5, mean+/−SD). […] Numbers of RAD51 IRIF in siCtrl and siSYCP2 treated MDAMB231 and U2OS cells after 2 Gy IR and 1 hour recovery were counted (n=20, +/SD). […]

[3] = system: ZR-75-30, MCF7, HCC-1954, HCC-1937, MDA-MB-468 and MDA-MB-231; test: Colony formation assay with Olaparib in six breast cancer cell lines; assay type: cell-based
Protocol: FIGS. 10A-10E show SYCP2 promotes RAD51 localization to DSBs independently of BRCA1. (FIG. 10A) The schematic mechanism of HR in the absence of BRCA1/2 for RAD51 loading with the help of SYCP2. RAD51 IRIF in BRCA1 mutant breast cancer cell lines after 2 Gy IR and 1 hour recovery with or without siSYCP2. Numbers of RAD51 foci per cell in siCtrl and siSYCP2 were quantified (n=20). The frameshift mutation of BRCA1 in cell line HCC1954 and HCC1937 is listed in the right. (FIG. 10B) The frequency of BRCA1 and SYCP2 IRIF colocalizing with γ-H2AX in U2OS cells after 2 Gy IR and recovery of 1 hour. Western blot of BRCA1 and SYCP2 knockdown and RAD51 expression level was shown in the left. (FIG. 10C) Comparison of SYCP2 RNA expression (CCLE database) in BRCA1/2 mutant and wildtype breast cancer cell lines. The analysis is normalized to Fragments Per Kilobase Million (FPKM). (FIG. 10D) Plot of correlation between SYCP2 expression and IC50 of Olaparib in groups of BRCA WT vs. mutant cells (left), high BRCA1 vs. low BRCA1 (right). p values and r values were determined by using Pearson correlated analysis. […]
Approximately 400 cells were replanted on 6-cm dishes 48 h after siRNA transfection. […] Colonies were stained with 0.3% crystal violet/methanol and counted 9 days after treatments. Each experiment was performed at least 3 times and the standard errors were calculated and indicated in the graphs. […]

[4] = system: SKOV3 subcutaneous xenograft tumors; test: SKOV3 xenograft with Cisplatin; assay type: in vivo, BALB/c nude mice; conditions: Cisplatin 5 mg/kg into tumor twice per week for 3 weeks, Lv-shTRDMT1 versus Lv-NC
Protocol: FIGS. 5A-5E show reduced TRDMT1 expression renders Cisplatin sensitization in vivo. (FIG. 5A) Lv-shTRDMT1 or Lv-NC transfected SKOV3 cells were subcutaneously injected into BALB/c nude mice, a week after injection, Cisplatin (5 mg/kg) or saline was injected into the center of the xenograft tumors twice per week for 3 consecutive weeks. (FIG. 5B) Representative images of tumors in xenografts transfected with LV-shTRDMT1/LV-NC with saline or Cisplatin treatment. (FIG. 5C) Tumor size of SKOV3 subcutaneous xenograft tumors (n=6, Mean±SD). (FIG. 5D) WB for TRDMT1 in tumor tissues collected from mice in each group (Tissues from six tumors in the same group were mixed into one sample). (FIG. 5E) IHC of TRDMT1 and KI-67 expression in ovarian cancer tissues of patients who were platinum-sensitive (PFS>6) and —resistant (PFS<6) Staining was assessed and scored on a scale of 0 (<5% staining) to 4 (>75% staining) in G. Quantification of IHC staining (n=38, PFS>6, n=24; PFS<6, n=14) was shown. […]
When mice developed palpable tumors (about a week after injection), cDDP (5 mg/kg) or saline were then injected into the center of the xenograft tumors twice per week for 3 consecutive weeks. […] PFS was calculated from the time of surgery to the time of progression or recurrence. […]

breast tumors = test: Sacituzumab Govitecan (IMMU-132) clinical trial, outcome by SYCP2 IHC; assay type: in vivo; conditions: 16 patients
Text: FIGS. 13A-13D show high SYCP2 expression associates with poor prognosis and drug resistance in patients. (FIG. 13A). Summarization of subtypes of breast cancer patients in a Sacituzumab Govitecan (IMMU-132) clinical trial group. Patients were divided to high SYCP2 group and low SYCP2 group by IHC of SYCP2. IHC staining of SYCP2 expression in patient tumor tissues from the IMMU-132 clinical trial group. Representative images were shown. Cutoff value is median. Numbers of patients' response as Partial Response (PR) or Stable Disease (SD) in low SYCP2 group and high SYCP2 group in IMMU clinical trial are shown. (FIG. 13B) Kaplan-Meier curves of patients' overall survival and progression free survival in FIG. 13A. (FIG. 13C) Overall survival curves of 1095 patients from TCGA. Cutoff value is median. R value and p value were calculated by COX survival analysis. […]
The collected tumor specimens and adjacent normal tissue samples were fixed in 4% parafoiinaldehyde, stored in PBS. After sucrose infiltration, samples were filled with OTC and ready for cryosection. […] After deparaffinization and rehydration, sections were blocked and incubated with antibody against SYCP2 (PAS-67554, 1:20), Ki-67 (sc-23900, Santa Cruz, 1:200), and then detected using the Dako Envision two-step method of immunohistochemistry (Carpinteria, CA, USA). […] All IHC staining was scored independently by 2 pathologists. […]

O=C(c1cc(Cc2n[nH]c(=O)c3ccccc23)ccc1F)N1CCN(C(=O)C2CC2)CC1 [Olaparib]
response of HCC1954 to PARPi [1]: relatively resistant | tumor growth, control tumors ([2]; siControl tumors, intraperitoneal, every 2 days after day 7, 23 days): reduced the growth of control tumors | tumor growth, SYCP2 knockout tumors ([2]; siSYCP2 tumors versus control tumors): reduced the growth of SYCP2 knockout tumors more than control tumors | PARPi sensitivity, BRCA1 mutant versus non-mutant ([3]; among four cell lines expressing high levels of SYCP2): more sensitive | PARPi sensitivity, low versus high SYCP2 ([3]; among four cell lines without BRCA mutations): much more sensitive

N.N.[Cl][Pt][Cl] [cisplatin]
xenograft tumor size, Lv-shTRDMT1 tumors [4]: grew statistically smaller

Sacituzumab Govitecan
response rate in patients with SYCP2high tumors (breast tumors; SYCP2high versus SYCP2low by IHC): reduced rate of partial response (PR) but an increased rate of stable disease (SD) | survival in patients with high SYCP2 expression (breast tumors; high SYCP2 expression): shorter overall survival and progression-free survival
